Here are results for 14 molecules from patent US7074789B2, “Kinase inhibitors” (Amgen Inc., priority 1999, dated 2006).

Common to all, as to assay type: biochemical
One assay deals with T1, PDGFRB (Homo sapiens, UniProt P09619).
T1 construct: Kinases are expressed as either kinase domains or full length constructs; made in house
The assay is described as follows: Kinase inhibition assay (33P transfer), PDGFRB. The following applies: for IC50: read-out: PDGFRB-1.

The target of the next assay is T2, AKT (Homo sapiens, UniProt Q9Y243).
T2 construct: Kinases are expressed as either kinase domains or full length constructs; made in house
T2 sequence (Q9Y243 whole entry, the tested form may be a part): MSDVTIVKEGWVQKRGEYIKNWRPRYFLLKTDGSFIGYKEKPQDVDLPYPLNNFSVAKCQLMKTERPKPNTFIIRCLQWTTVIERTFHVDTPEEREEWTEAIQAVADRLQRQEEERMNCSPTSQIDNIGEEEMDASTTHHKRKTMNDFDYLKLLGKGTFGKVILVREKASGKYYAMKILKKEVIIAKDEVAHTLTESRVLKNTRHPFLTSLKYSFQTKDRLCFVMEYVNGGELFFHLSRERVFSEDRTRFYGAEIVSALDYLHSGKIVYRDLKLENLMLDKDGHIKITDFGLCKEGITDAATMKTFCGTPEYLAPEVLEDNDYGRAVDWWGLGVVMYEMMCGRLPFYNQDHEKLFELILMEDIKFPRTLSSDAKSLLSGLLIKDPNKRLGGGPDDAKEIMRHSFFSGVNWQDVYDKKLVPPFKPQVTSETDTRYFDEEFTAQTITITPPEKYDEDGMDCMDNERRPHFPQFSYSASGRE
Kind of assay: Kinase inhibition assay (33P transfer), AKT. To be noted: Table 2, kinase inhibition class; for IC50: read-out: AKT3-1. A digest of the protocol:
(§1)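 33P-ATP transfer to coated synthetic polymer substrates; acid wash (0.5% H3PO4), scintillant, liquid scintillation count. Enzymes: His- or GST-fusion kinases from E. coli or High Five insect cells.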

For the next assay, the target named is T3, ErbB2 (Homo sapiens, UniProt P04626).
T3 construct: Kinases are expressed as either kinase domains or full length constructs; made in house
The assay is described as follows: Kinase inhibition assay (33P transfer), ErbB2. The following applies: for IC50: read-out: ErbB2-2. A digest of the protocol: (§2)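 IC50: inhibitor concentration lowering 33P incorporation into immobilised substrate by 50%. Label transferred from ATP to poly(Glu,Tyr) 4:1 or poly(Arg,Ser) 3:1 is measured after a 0.5% phosphoric acid wash by liquid scintillation.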

For a further assay, the target named is T4, Kdr (Homo sapiens, UniProt P35968).
T4 construct: Kinases are expressed as either kinase domains or full length constructs; made in house
The assay is described as follows: Kinase inhibition assay (33P transfer), Kdr. The following applies: for IC50: read-out: KDR-1. The gist of the method: as §1

The next assay concerns the target T5, Itk (Homo sapiens, UniProt Q08881).
T5 construct: Kinases are expressed as either kinase domains or full length constructs; made in house
T5 sequence (Q08881 1-620): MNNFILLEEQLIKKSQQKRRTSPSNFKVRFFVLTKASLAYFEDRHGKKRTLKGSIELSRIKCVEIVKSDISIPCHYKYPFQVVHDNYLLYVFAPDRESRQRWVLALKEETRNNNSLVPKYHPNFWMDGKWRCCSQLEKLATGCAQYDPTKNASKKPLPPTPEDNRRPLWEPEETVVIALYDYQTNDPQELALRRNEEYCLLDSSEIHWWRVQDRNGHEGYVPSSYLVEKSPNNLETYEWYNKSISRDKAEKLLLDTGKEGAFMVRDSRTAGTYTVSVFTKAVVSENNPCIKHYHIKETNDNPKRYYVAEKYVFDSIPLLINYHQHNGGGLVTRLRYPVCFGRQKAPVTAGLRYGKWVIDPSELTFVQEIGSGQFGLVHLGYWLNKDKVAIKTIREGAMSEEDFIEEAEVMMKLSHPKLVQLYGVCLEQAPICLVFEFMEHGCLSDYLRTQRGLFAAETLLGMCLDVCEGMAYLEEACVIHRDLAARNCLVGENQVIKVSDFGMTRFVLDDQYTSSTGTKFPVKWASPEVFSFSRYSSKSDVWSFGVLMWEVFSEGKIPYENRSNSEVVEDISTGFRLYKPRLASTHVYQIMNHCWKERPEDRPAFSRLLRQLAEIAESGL
Kind of assay: Kinase inhibition assay (33P transfer), Itk. The following applies: for IC50: read-out: Itk-1. The gist of the method: as §2

A further assay concerns the target T6, Lck (Homo sapiens, UniProt P06239).
T6 construct: Kinases are expressed as either kinase domains or full length constructs; made in house
Kind of assay: Kinase inhibition assay (33P transfer), Lck. To be noted: for IC50: read-out: Lck-1. The gist of the method:
as §1

The target of another assay is T7, Zap-70 (Homo sapiens, UniProt P43403).
T7 construct: Kinases are expressed as either kinase domains or full length constructs; made in house
T7 sequence (P43403 1-619): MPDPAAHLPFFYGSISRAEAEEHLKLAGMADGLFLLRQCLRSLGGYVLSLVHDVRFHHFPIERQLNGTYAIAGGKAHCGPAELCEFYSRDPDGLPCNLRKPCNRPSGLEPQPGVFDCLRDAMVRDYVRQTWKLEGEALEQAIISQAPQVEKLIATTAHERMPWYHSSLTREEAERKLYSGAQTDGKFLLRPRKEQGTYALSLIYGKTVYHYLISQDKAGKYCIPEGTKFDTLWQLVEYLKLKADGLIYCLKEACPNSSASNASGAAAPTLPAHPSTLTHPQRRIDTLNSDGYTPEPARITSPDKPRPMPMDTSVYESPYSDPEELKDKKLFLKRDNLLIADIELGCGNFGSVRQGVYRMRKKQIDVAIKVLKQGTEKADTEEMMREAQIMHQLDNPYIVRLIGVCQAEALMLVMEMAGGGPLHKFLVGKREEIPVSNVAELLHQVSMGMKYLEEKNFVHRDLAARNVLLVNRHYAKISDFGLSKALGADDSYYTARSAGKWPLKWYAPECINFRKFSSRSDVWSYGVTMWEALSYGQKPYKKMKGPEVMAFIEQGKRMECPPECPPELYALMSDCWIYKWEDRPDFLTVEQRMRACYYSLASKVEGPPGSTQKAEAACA
The assay is described as follows: Kinase inhibition assay (33P transfer), Zap-70. The following applies: for IC50: read-out: Zap-1. A digest of the protocol:
as §1

In a further assay the target is T8, c-Met (Homo sapiens, UniProt P08581).
T8 construct: Kinases are expressed as either kinase domains or full length constructs; made in house
T8 sequence (P08581 25-1390): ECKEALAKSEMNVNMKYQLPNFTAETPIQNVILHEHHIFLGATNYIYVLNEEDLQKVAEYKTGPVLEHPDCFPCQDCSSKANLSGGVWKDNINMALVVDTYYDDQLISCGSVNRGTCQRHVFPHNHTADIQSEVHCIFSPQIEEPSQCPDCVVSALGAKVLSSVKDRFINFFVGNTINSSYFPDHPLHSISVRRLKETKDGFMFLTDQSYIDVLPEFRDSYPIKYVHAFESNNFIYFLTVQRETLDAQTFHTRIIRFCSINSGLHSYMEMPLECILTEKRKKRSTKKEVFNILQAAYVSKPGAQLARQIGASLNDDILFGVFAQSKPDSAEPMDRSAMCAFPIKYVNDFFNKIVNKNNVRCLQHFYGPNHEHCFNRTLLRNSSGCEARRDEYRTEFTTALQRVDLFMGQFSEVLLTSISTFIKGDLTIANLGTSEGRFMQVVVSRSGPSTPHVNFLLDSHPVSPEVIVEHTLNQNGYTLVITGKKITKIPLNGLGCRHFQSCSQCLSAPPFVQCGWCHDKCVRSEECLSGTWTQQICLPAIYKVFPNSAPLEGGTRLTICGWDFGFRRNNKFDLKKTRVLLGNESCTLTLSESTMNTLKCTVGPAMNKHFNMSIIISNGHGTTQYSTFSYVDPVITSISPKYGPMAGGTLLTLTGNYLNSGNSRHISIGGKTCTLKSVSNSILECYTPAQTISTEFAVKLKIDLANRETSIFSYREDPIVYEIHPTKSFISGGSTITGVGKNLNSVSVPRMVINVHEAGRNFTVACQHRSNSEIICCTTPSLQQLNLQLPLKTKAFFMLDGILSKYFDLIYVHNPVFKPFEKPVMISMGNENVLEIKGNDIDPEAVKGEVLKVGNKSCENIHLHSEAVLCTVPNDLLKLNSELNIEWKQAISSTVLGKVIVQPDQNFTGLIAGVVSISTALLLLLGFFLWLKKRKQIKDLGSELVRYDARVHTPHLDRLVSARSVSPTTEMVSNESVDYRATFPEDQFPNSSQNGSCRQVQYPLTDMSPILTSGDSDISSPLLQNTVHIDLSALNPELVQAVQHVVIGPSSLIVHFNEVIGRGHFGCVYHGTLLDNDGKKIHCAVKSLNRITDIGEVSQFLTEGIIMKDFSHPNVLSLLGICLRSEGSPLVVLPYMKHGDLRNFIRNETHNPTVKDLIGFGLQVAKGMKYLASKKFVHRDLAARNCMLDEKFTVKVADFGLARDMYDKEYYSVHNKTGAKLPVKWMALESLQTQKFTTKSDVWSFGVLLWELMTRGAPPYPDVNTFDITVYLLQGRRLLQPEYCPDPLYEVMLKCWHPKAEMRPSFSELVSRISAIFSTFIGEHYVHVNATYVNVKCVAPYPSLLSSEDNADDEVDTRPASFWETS
The assay is described as follows: Kinase inhibition assay (33P transfer), c-Met. The following applies: Table 2, kinase inhibition class; for IC50: read-out: Met-1. A digest of the protocol:
as §2

In the next assay the target is T9, EGFR (Homo sapiens, UniProt P00533).
T9 construct: Kinases are expressed as either kinase domains or full length constructs; made in house
Kind of assay: Kinase inhibition assay (33P transfer), EGFR. To be noted: Table 2, kinase inhibition class; for IC50: read-out: EGFR-1. A digest of the protocol:
as §2

For a further assay, the target named is T10, IGFR-1 (Homo sapiens, UniProt P08069).
T10 construct: Kinases are expressed as either kinase domains or full length constructs; made in house
T10 sequence (P08069 31-1367): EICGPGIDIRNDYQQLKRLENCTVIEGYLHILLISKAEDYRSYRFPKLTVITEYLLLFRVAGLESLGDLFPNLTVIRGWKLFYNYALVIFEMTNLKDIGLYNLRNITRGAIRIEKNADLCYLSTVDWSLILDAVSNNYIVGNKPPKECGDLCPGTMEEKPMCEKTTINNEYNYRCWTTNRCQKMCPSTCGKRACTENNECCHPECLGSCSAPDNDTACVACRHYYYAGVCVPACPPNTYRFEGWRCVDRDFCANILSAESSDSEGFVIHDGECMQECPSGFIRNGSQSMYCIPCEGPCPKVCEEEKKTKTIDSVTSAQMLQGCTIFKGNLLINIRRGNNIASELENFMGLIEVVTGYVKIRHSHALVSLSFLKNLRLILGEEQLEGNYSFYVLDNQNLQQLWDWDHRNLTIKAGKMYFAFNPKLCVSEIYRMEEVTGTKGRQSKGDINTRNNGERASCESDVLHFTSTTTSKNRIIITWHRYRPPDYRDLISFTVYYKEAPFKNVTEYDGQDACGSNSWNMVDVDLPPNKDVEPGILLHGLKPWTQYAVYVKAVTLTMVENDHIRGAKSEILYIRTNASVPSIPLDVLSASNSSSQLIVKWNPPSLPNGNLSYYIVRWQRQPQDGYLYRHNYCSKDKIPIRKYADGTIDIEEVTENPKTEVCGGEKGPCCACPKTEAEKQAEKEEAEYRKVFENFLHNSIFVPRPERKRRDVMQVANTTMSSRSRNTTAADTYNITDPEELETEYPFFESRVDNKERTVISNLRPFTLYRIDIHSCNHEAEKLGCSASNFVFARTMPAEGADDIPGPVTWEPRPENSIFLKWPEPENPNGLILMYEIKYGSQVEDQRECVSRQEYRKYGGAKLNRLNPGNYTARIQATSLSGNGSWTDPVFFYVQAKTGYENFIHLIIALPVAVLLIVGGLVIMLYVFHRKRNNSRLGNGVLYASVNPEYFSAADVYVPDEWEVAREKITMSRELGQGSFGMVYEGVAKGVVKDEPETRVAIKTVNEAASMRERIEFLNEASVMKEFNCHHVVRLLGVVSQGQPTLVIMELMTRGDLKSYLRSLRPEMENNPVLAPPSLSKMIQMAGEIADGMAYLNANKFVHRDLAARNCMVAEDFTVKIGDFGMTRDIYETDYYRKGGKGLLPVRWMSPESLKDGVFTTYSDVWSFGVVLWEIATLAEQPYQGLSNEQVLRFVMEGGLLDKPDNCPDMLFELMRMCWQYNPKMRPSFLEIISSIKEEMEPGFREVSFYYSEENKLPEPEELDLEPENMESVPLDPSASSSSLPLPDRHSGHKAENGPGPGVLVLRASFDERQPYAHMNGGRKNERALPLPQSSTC
The assay is described as follows: Kinase inhibition assay, IGFR-1 (Table 2). To be noted: Table 2, kinase inhibition class.

T6 sequence (P06239 whole entry, species assumed, the tested form may be a part): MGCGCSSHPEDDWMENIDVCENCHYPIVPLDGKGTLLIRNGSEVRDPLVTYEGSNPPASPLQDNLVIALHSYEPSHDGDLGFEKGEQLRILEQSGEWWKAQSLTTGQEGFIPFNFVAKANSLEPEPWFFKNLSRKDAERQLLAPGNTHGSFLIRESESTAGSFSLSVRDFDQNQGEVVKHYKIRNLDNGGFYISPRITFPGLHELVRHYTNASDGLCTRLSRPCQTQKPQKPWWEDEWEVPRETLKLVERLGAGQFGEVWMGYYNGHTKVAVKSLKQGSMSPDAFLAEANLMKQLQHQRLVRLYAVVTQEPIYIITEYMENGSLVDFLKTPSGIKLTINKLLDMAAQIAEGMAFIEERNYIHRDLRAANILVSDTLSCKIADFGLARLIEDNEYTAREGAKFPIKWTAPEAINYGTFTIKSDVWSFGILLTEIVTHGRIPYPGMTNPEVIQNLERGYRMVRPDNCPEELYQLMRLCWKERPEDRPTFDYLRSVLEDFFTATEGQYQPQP
T1 sequence (P09619 33-1106, species assumed): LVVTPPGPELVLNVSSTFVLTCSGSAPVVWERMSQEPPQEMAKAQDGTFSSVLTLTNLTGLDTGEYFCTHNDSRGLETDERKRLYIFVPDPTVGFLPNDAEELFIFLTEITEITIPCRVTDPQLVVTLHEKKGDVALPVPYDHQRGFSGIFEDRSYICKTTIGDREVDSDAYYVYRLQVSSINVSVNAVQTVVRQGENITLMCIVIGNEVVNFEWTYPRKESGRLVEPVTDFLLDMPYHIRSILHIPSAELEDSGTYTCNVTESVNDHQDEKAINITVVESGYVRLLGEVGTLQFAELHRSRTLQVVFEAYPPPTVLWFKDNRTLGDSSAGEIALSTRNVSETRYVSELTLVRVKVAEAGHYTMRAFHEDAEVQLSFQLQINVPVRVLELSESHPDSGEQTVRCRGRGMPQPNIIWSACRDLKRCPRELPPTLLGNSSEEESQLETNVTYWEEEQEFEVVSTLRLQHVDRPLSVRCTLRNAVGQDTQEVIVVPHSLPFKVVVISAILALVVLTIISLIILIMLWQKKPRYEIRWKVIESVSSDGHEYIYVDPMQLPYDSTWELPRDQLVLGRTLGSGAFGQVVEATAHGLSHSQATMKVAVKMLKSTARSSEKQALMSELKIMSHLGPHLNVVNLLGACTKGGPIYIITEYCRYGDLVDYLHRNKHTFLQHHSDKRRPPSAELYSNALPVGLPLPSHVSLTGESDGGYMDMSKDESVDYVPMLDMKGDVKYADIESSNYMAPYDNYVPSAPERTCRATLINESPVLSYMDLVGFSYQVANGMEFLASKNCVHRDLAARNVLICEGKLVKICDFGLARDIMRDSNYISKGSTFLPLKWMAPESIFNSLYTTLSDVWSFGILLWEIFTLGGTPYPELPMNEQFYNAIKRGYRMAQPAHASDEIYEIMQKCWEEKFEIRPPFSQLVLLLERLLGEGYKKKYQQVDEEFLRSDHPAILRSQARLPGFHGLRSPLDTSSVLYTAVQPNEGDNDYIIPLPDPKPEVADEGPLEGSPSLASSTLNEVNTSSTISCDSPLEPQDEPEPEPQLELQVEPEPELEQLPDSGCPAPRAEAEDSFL

Regarding `COc1cc(Nc2ncnc(-c3cccnc3Cl)n2)cc(OC)c1OCCN1CCOCC1` [Compound 565], the IC50 at PDGFRB is 0.846 to 5.07 µM; on AKT, above 9.52 µM; on ErbB2, above 9.52 µM; on Kdr it was 5.07 to 7.4 µM; at Itk, above 9.52 µM; at Lck, 0.846 to 5.07 µM. For the same molecule, the IC50 at Zap-70, on c-Met, on EGFR and at IGFR-1 was above 9.52 µM throughout.
On to `Cc1ccc2c(c1)CCCN2c1ncnc(NCc2ccccn2)n1` [Compound 769], for which the IC50 at PDGFRB, on AKT, on ErbB2, on Kdr, on Itk and at Lck was above 13.5 µM throughout. In addition, the IC50 at Zap-70, on c-Met, on EGFR and against IGFR-1 was above 13.5 µM throughout.
As for `COc1ccc(CCNc2ncnc(N3CCCc4cc(C)ccc43)n2)cc1OC` [Compound 771], the IC50 on PDGFRB was above 11.1 µM; on AKT, above 11.1 µM; at ErbB2 it was above 11.1 µM; on Kdr, 5.92 to 8.63 µM; on Itk, above 11.1 µM; at Lck, above 11.1 µM. Besides, the IC50 at Zap-70, on c-Met, at EGFR and on IGFR-1 was above 11.1 µM in each case.
For `COC(=O)Cc1cccc(Nc2ncnc(Nc3cccc(Br)c3)n2)c1` [Compound 540], the IC50 on PDGFRB is 8.45 to 10.9 µM; on AKT it was above 10.9 µM; on ErbB2, 0.966 to 5.79 µM; at Kdr, 5.79 to 8.45 µM; on Itk, 8.45 to 10.9 µM; on Lck it was 0.966 to 5.79 µM. In addition, the IC50 was above 10.9 µM on Zap-70, 5.79 to 8.45 µM at c-Met, below 0.966 µM on EGFR and below 0.966 µM against IGFR-1.
In the case of `COc1ccc(Nc2ncnc(NCCCOC(C)C)n2)cc1OC` [Compound 785], the IC50 at PDGFRB, on AKT, on ErbB2, on Kdr, at Itk and at Lck was above 13 µM throughout. The IC50 at Zap-70, at c-Met, on EGFR and against IGFR-1 was above 13 µM in each case.
With `Fc1ccc(Nc2ncnc(Nc3ccc4[nH]ccc4c3)n2)cc1Cl` [Compound 715], the PDGFRB-1 result on PDGFRB is “B (B>0.4 and <2.4 ug/mL)”. Besides, the AKT3-1 result at AKT was “D (D>3.5 and <4.5 ug/mL)”. Further, the ErbB2-2 entry at ErbB2 is “B (B>0.4 and <2.4 ug/mL)”. Moreover, at Kdr, the KDR-1 entry is “B (B>0.4 and <2.4 ug/mL)”. In addition, the Itk-1 entry at Itk was “D (D>3.5 and <4.5 ug/mL)”. The Lck-1 entry on Lck is given as “E (E>4.5 ug/mL)”. For the same molecule, the Zap-1 entry on Zap-70 is “C (C>2.4 and <3.5 ug/mL)”. At c-Met, the Met-1 entry is “C (C>2.4 and <3.5 ug/mL)”. In addition, the EGFR-1 entry on EGFR was “A (A<0.4 ug/mL)”. Also, the IGFR-1 entry at IGFR-1 was “B (B>0.4 and <2.4 ug/mL)”.
As to `Cc1ccc2c(c1)CCCN2c1ncnc(NCCc2cccnc2)n1` [Compound 775], the IC50 on PDGFRB, at AKT, at ErbB2, at Kdr, at Itk and at Lck was above 13 µM each time. The IC50 on Zap-70, at c-Met, on EGFR and against IGFR-1 was above 13 µM in each case.
For `COc1cc(Nc2ncnc(NC3CCc4ccccc43)n2)cc(OC)c1OC` (centres unmarked) [Compound 581], the IC50 is 6.1 to 8.9 µM on PDGFRB; above 11.4 µM at AKT; above 11.4 µM on ErbB2; 8.9 to 11.4 µM on Kdr; above 11.4 µM at Itk; 1.02 to 6.1 µM at Lck. The IC50 at Zap-70 is above 11.4 µM; at c-Met it was above 11.4 µM; on EGFR it was 1.02 to 6.1 µM; against IGFR-1 it was above 11.4 µM.
Take `COc1cc(Nc2ncnc(-c3cccnc3Nc3cccc(C(N)=O)c3)n2)cc(OC)c1OC` [Compound 1090]: the IC50 on PDGFRB was below 0.845 µM; at AKT, above 9.5 µM; at ErbB2, above 9.5 µM; on Kdr, below 0.845 µM; on Itk it was above 9.5 µM; at Lck, below 0.845 µM. In addition, the IC50 is above 9.5 µM at Zap-70, 7.39 to 9.5 µM on c-Met, above 9.5 µM on EGFR and 7.39 to 9.5 µM on IGFR-1.
Turning to `CN(c1cccc(Cl)c1)c1ncnc(-n2c(N)nc3ccccc32)n1` [Compound 664], the IC50 lay in the range of 9.95 to 12.8 µM on PDGFRB; 6.82 to 9.95 µM on AKT; 1.14 to 6.82 µM at ErbB2; 1.14 to 6.82 µM on Kdr; 6.82 to 9.95 µM at Itk; 1.14 to 6.82 µM at Lck. The IC50 at Zap-70 fell in the range of 6.82 to 9.95 µM; at c-Met it was 1.14 to 6.82 µM; at EGFR, 1.14 to 6.82 µM; against IGFR-1, 1.14 to 6.82 µM.
For the molecule `COc1cc(Nc2ncnc(-n3c(Nc4ccccc4C(C)C)nc4ccccc43)n2)cc(OC)c1OC` [Compound 1049], the IC50 is 0.782 to 4.69 µM at PDGFRB; above 8.8 µM at AKT; above 8.8 µM at ErbB2; below 0.782 µM at Kdr; above 8.8 µM on Itk; 0.782 to 4.69 µM at Lck. Besides, the IC50 at Zap-70 is above 8.8 µM; on c-Met it was 0.782 to 4.69 µM; on EGFR it was above 8.8 µM; on IGFR-1, above 8.8 µM.
Consider `CN(c1cccc(Cl)c1)c1ncnc(Nc2ccncc2)n1` [Compound 756], for which the IC50 at PDGFRB is 1.28 to 7.67 µM; at AKT, above 14.4 µM; on ErbB2 it was above 14.4 µM; on Kdr it was above 14.4 µM; on Itk, above 14.4 µM; at Lck, 1.28 to 7.67 µM. Further, the IC50 at Zap-70 was above 14.4 µM; on c-Met, 1.28 to 7.67 µM; on EGFR, below 1.28 µM; against IGFR-1, above 14.4 µM.
As for `CC(=O)Nc1ccc(Nc2ncnc(N3CCCc4cc(C)ccc43)n2)cc1` [Compound 760], the IC50 at PDGFRB was 1.07 to 6.41 µM; on AKT, above 12 µM; on ErbB2, 1.07 to 6.41 µM; on Kdr it was 1.07 to 6.41 µM; on Itk, above 12 µM; at Lck, 1.07 to 6.41 µM. The IC50 on Zap-70 was above 12 µM; at c-Met, 1.07 to 6.41 µM; at EGFR, below 1.07 µM; against IGFR-1, above 12 µM.
Take `CN(c1cccc(Cl)c1)c1ncnc(Nc2ccc3[nH]ccc3c2)n1` [Compound 714]: the IC50 was 1.14 to 6.84 µM on PDGFRB; above 12.8 µM at AKT; below 1.14 µM on ErbB2; 1.14 to 6.84 µM on Kdr; above 12.8 µM at Itk; 1.14 to 6.84 µM on Lck. In addition, the IC50 on Zap-70 was above 12.8 µM; at c-Met, 1.14 to 6.84 µM; on EGFR, below 1.14 µM; against IGFR-1, 1.14 to 6.84 µM.
